Legend:
IN-DNA binding = target: T1, IN-DNA binding (Human immunodeficiency virus type 1 group M subtype B, UniProt P12497); experiment: IN-DNA binding by fluorescence anisotropy; design: species or system HIV-1
T1 construct: 250 nM of recombinant HIV-1 integrase; made in house; host or cells: E. coli RosettaII
Description: Although the CCD alone harbors all of the structural determinants of the active site to support the catalytic activity, the NTD and CTD have been implicated in both the quaternary architecture of the enzyme and DNA binding. Because outer domains (NTD and/or CTD) appeared important in the inhibition of IN by NSC34931, we wondered if stilbene disulfonic acid derivatives might compete with DNA binding. To test whether NSC34931 competed with substrate binding, we developed a plate-based assay with a fluorescent DNA substrate.
In addition, controls with DMSO (0 µM) or without IN (DNA only) were included. Data represent the mean of three independent experiments.
DNA binding was measured using a plate-based assay as previously described. […] Compounds or DMSO were incubated at room temperature for 5 min in the IN-activity buffer, in the absence or the presence of IN (400 nM). After addition of the DNA (10 nM), fluorescence anisotropy was measured every 30 s for 30 min using an Envision plate reader (Perkin Elmer, Waltham, MA, USA).

in vitro = conditions: human

O=S(=O)(O)c1cc(/N=N/c2cc(S(=O)(=O)O)c3ccccc3c2O)ccc1/C=C/c1ccc(/N=N/c2cc(S(=O)(=O)O)c3ccccc3c2O)cc1S(=O)(=O)O [NSC34931]
fold lower concentration for IN-DNA binding inhibition than for inhibition of 3'-P and ST (IN-DNA binding): about 10
concentration giving full inhibition of IN-DNA binding (IN-DNA binding; fluorescence anisotropy): 51 nM
effect on IN substrate (DNA) binding (IN-DNA binding; fluorescence anisotropy over 30 min): strongly and durably prevented IN-DNA binding
CC50 (in vitro): 59 µM

Reference: PMC6832134, “Discovery of Novel Integrase Inhibitors Acting outside the Active Site Through High-Throughput Screening” (Molecules, 2019)
